US8334291B2, “Aliphatically substituted pyrazolopyridines, and the use thereof” (Bayer Intellectual Property GmbH, priority 2008, dated 2012)

Test system: rabbit aorta rings contracted with phenylephrine
Assay: Vasorelaxant effect in vitro
Design: species or system Rabbits
Conditions: Oryctolagus cuniculus; concentration reducing height of phenylephrine-induced contraction of rabbit aorta rings by 50%; 0.1% DMSO
Description: Rabbits are stunned by a blow to the neck and exsanguinated. The aorta is removed, freed from adhering tissue and divided into rings of a width of 1.5 mm. The rings are placed individually under an initial tension in 5 ml organ baths with Krebs-Henseleit solution which is at 37° C., is gassed with carbogen and has the following composition (in each case mM): NaCl: 119; KCl: 4.8; CaCl2×2H2O: 1; MgSO4×7H2O: 1.4; KH2PO4: 1.2; NaHCO3: 25; glucose: 10. The force of contraction is detected with Statham UC2 cells, amplified and digitized via A/D converters (DAS-1802 HC, Keithley Instruments, Munich) and recorded in parallel on chart recorders. Contractions are induced by cumulatively adding increasing concentrations of phenylephrine to the bath. After several control cycles, the substance to be investigated is added in each further run in increasing dosage in each case, and the height of the contraction achieved is compared with the height of the contraction reached in the last preceding one. The concentration necessary to reduce the height of the control value by 50% is calculated from this (IC50 value). The standard application volume is 5 μl, the proportion of DMSO in the bath solution corresponds to 0.1%.

Compound	IC50
COC(=O)Nc1c(N)nc(-c2nn(CC3CCCCC3)c3ncccc23)nc1N [Example 1, Methyl[4,6-diamino-2-(1-cyclohexylmethyl-1H-pyrazolo[3,4-b]pyridin-3-yl)pyrimidin-5-yl]carbamate]	870 nM
Nc1nc(-c2nn(CC3CCCCCC3)c3ncccc23)ncc1-c1ccncc1 [Example 5, 2-[1-(Cycloheptylmethyl)-1H-pyrazolo[3,4-b]pyridin-3-yl]-5-(pyridin-4-yl)pyrimidine-4-amine]	1000 nM
